How the values were obtained:
HCT116-S100A4 cells = test: Boyden chamber transwell migration assay; format: cell-based, human; conditions: 1 μM, 24 h, statistically not significant
Experimental: (§1) HCT116, SW620, LS174T, SW480 and DLD-1 cells were used in cell migration and invasion analysis performed with Boyden chamber assay. 400 μL containing 2.5×10^5 cells were seeded into each transwell chamber with filter membranes of 12.0 μm pore size (Millipore, Schwalbach, Germany). For invasion filter membranes were coated with 50 μL Matrigel (diluted 1:3 in RPMI-1640; BD Biosciences) 10 minutes before cells were seeded. Fresh medium (600 μL) were added to the bottom chamber and cells were allowed to attach to the insets for 15 hours. Both chambers were treated with 1 μM niclosamide or the respective amount of DMSO and incubated at 37° C. and 5% CO2 in a humidified incubator for 24 hours. Afterwards insets were removed and cells that had migrated through the membrane to the lower chamber were trypsinized and counted in a Neubauer chamber (LO-Laboroptik, Bad Homburg, Germany). Each well was counted ten times. Each migration or invasion experiment was performed in duplicate. The average number of migrated or invaded cells was determined for at least three independent experiments.
(§2) (A) Cell migration of HCT116-vector and HCT116-S100A4 cells exposed to niclosamide treatment. Cells were treated with 1 μM niclosamide for 24 hours and migration rates were measured with Boyden chamber assay. (B) Cell invasion of HCT116-vector and HCT116-S100A4 cells exposed to niclosamide treatment. Cells were treated with 1 μM niclosamide for 24 hours and cell invasion was determined by Boyden chamber assay. (C) Directed migration of HCT116-vector and HCT116-S100A4 cells exposed to niclosamide treatment analyzed by wound healing assay. Wounds of 300 μM width were set in a 60% confluent monolayer of HCT116-vector or HCT116-S100A4 cells on day 1. Cells were treated daily with 1 μM niclosamide for 4 days. Microphotographs of day 4 are presented here with black lines indicating margins of entered wound of day 1; scale bar represents 200 μM. Data represents three independent experiments. (D) Adhesive cell proliferation of HCT116-vector and HCT116-S100A4 cells exposed to niclosamide treatment. Cells were treated daily with 1 μM niclosamide and cell viability was determined with MTT assay. (E) Anchorage-independent cell growth of HCT116-vector and HCT116-S100A4 cells exposed to niclosamide treatment. Cells were plated as single cells into 0.33% (w/v) agarose and treatment (solvent or 1 μM niclosamide) containing medium. After 7 days colonies were visualized by light microscopy at 10× (overview) and 40× (single colony) magnification. (F) Quantification of colonies formed. Number of colonies (of more than 4 cells) was counted and normalized to solvent-treated HCT116-vector cells. Differences of niclosamide vs. solvent-treated cells were analyzed by Student's t test. […]

HCT116-vector cells = test: Boyden chamber transwell migration assay; format: cell-based, human; conditions: 24 h
Experimental: as §1, §2

S100A4 mRNA = S100A4 mRNA in spleen tumor of xenograft mice (qRT-PCR); format: in vivo; conditions: for S100A4 mRNA level in spleen tumor, mean % of control mice / S100A4 mRNA level in spleen tumor, mean difference control vs niclosamide: day 24
Experimental: All experiments were performed in accordance with the UKCCCR guidelines and approved by the responsible local authorities (State Office of Health and Social Affairs, Berlin, Germany). HCT116-CMVp-LUC cells (3×10^6 cells per mouse, resuspended in 50 μL PBS) were intrasplenically transplanted into 6-week-old female nonobese diabetic-severe combined immunodeficiency (NOD-SCID) mice. Mice were randomly assigned to 3 groups and reatment of mice started 24 hours after cell transplantation. Mice of the control group (n=9) were treated with daily doses of solvent. Mice of the second group (n=9) were daily treated intraperitoneally with 20 mg per kg niclosamide. Mice of the third group (n=9) were treated intraperitoneally with two doses of 15 mg per kg niclosamide per day. The experimental endpoint was reached when mice appeared moribund and/or the spleen tumor was palpable. This was the case with the majority of control mice on day 24. For long-term in vivo experiments mice randomly assigned to 3 groups. Mice of the control group (n=6) were treated intraperitoneally with daily doses of solvent. Mice of the second group (n=6) were daily treated intraperitoneally with 20 mg per kg niclosamide. Mice of the third group (n=6) were daily treated intraperitoneally for 24 days with 20 mg per kg niclosamide and for the residual days with solvent. Mice were killed by cervical dislocation when tumor reached the maximum in accordance with the local authorities.
Spleen (as the transplantation site) and liver (as a metastasis target organ) were removed. The amount of S100A4 mRNA in the tumor was determined by Trizol RNA isolation of tumor cryosections and quantitative real-time RT-PCR. The level of metastasis was evaluated by scoring. For each liver, a score was calculated as the sum of the volumes of the individual metastases. For each metastasis the formula [width2]×length was applied.
(A) In vivo luminescence imaging of metastasis under niclosamide treatment. HCT116-CMVp-LUC cells stably expressing firefly luciferase (LUC) were intrasplenically transplanted into mice (per group n=4) followed by daily intraperitoneal treatment with 20 mg per kg niclosamide. For luminescence imaging, mice were anesthetized at the indicated days and received intraperitoneally D-luciferin. Exposure time for lateral and ventral imaging was 20 seconds per picture. In situ imaging and imaging of isolated organs was performed for 1 second per picture exposure time. Signal intensity of grayscale images (256 scale) were color coded (from low to high signal intensity: blue, green, yellow, red, white) and overlayed with bright field picture. (B) S100A4 mRNA level in spleen tumor of niclosamide-treated xenograft mice. Spleens from mice (per group n=9) were dissected on day 24. Tumor tissue was cryosected for RNA isolation. S100A4 mRNA level was measured by qRT-PCR and expressed as percentage of control mice. Differences were analyzed by two-sided one-way analysis of variance and Bonferroni post hoc multiple comparison test. Bars represent mean±SD. (C) Liver metastases size in niclosamide-treated xenograft mice. Liver was dissected from xenograft mice (per group n=9) intraperitoneally treated twice per day with 15 mg per kg or daily with 20 mg per kg niclosamide for 24 days. Metastasis was quantified by scoring. Data is given as mean±SD.
(A) S100A4 expression in vitro after discontinued niclosamide treatment. HCT116 cells were treated daily with 1 μM niclosamide for three consecutive days, medium was removed on day 4, and S100A4 expression was analyzed 24, 48, and 72 hours after niclosamide removal. S100A4 expression was analyzed by qRT-PCR and immunoblot. (B) Cell migration after discontinued niclosamide treatment. Cell migration rates of HCT116 cells treated as in (A) were determined by Boyden chamber assay. Differences in control vs. treated cells were analyzed by Student's t test. (C) Anchorage-dependent cell proliferation after discontinued niclosamide treatment. […]

[1] = 20 mg per kg daily intraperitoneally
[2] = 2×15 mg per kg per day intraperitoneally

**Q.** `O=C(Nc1ccc([N+](=O)[O-])cc1Cl)c1cc(Cl)ccc1O` [niclosamide, 2′,5-dichloro-4′-nitrosalicylanilide] was tested. Which “migration rate, mean %” value (HCT116-S100A4 cells; solvent control 145.0%) did it give?
**A.** The value was 117.0%.

**Q.** What about the “migration, mean difference control vs niclosamide” value (HCT116-S100A4 cells) of the same compound?
**A.** Its value is 28%.

**Q.** What about the “migration, mean difference control vs niclosamide” value (HCT116-vector cells; 1 μM) of the same compound?
**A.** The value was 57.0%.

**Q.** And the activity at 1 µM (HCT116-vector cells; Homo sapiens, read-out: number of migrated cells, mean % of control)?
**A.** The activity at 1 µM was 43%.

**Q.** What about the “S100A4 mRNA level in spleen tumor, mean % of control mice” value (S100A4 mRNA; [1]) of the same compound?
**A.** Its value is 67.2%.

**Q.** What about the “S100A4 mRNA level in spleen tumor, mean difference control vs niclosamide” value (S100A4 mRNA; [1]) of the same compound?
**A.** The value was 32.9%.

**Q.** And the “S100A4 mRNA level in spleen tumor, mean % of control mice” value (S100A4 mRNA; [2])?
**A.** Its value is 58.4%.

**Q.** What about the “S100A4 mRNA level in spleen tumor, mean difference control vs niclosamide” value (S100A4 mRNA; [2]) of the same compound?
**A.** Its value is 41.7%.

**Q.** What about the “S100A4 mRNA level in spleen tumor, mean difference control vs treatment” value (S100A4 mRNA; continuous treatment) of the same compound?
**A.** The value was 27%.

**Q.** And the “S100A4 mRNA level in spleen tumor, mean % of control animals” value (S100A4 mRNA; continuous treatment (20 mg per kg i.p. daily))?
**A.** Its value is 73%.

**Q.** And the “S100A4 mRNA level in spleen tumor, mean difference control vs treatment” value (S100A4 mRNA; discontinuous treatment)?
**A.** The value was 40.0%.

**Q.** What about the “S100A4 mRNA level in spleen tumor, mean % of control animals” value (S100A4 mRNA; discontinuous treatment (20 mg per kg i.p. for 24 days, then solvent)) of the same compound?
**A.** The value was 60%.
